These results are taken from patent US11285226B2, “Aryl ethene derivative and pharmaceutical composition containing same as active ingredient” (priority 2016, dated 2022).

For one series, the system named is CAL-62 cells. Nature of the series: 125I uptake assay in anaplastic thyroid cancer cells. It is filed as cell-based.
The test system of a further series is pERK1/2 in CAL62 cells. Description: Western blot, phosphorylated ERK1/2 (MAP kinase). The format is cell-based. As to conditions: selective MEK inhibitor. For orientation: In western blotting, separated proteins are transferred to a membrane and probed.
Series [1] is classed as in vitro ADME, dog. As to conditions: 1 μM, 30 minutes, 37° C.
Description: 2) Microsomal Stability Evaluation
(§3) Four liver microsomes (Human, Dog, Rat, Mouse 0.5 mg/ml) with a 0.1 M phosphate buffer solution (pH 7.4), and the arylethene derivative of the present invention were added to a concentration of 1 μM, culturing was performed at 37° C. for 5 minutes in advance, a NADPH regeneration system solution was added thereto, and culturing was performed at 37° C. for 30 minutes. Thereafter, in order to complete the reaction, an acetonitrile solution containing an internal standard material (chlorpropamide) was added thereto, centrifugation (14,000 rpm, 4° C.) was performed for 5 minutes, and a supernatant was injected into a LC-MS/MS system to analyze the substrate drug, thereby evaluating metabolism stability to the arylethene derivative of the present invention.
In the next series the target is ERRβ (Homo sapiens, UniProt O95718). Nature of the series: ERRβ binding assay (selectivity test), TR-FRET.
A further series has as its target CYP2C9 (Homo sapiens (Human), UniProt P11712). Description: Cytochrome P450 activity inhibition, CYP2C9. The note with it: 10 μM, human liver microsomes. The format is in vitro ADME. An excerpt: (§1) 1) Cytochrome P450 (CYP450) Activity Inhibition Evaluation
A general note: Liver microsomes are a subcellular fraction often used to study metabolism.

Series [2] is classed as in vitro ADME, mouse. As to conditions: 1 μM, 30 minutes, 37° C.
Description: 2) Microsomal Stability Evaluation
as §3
The target in series [3] is ER alpha ligand-binding domain (LBD) (Homo sapiens (Human), UniProt P03372). As to conditions: beta-estradiol 4 nM as agonist; read-out: Binding Assay, IC50 ERα.
Description: (§4) The arylethene derivative of the present invention was sequentially added to a 384 well plate from a concentration of 10 μM to a final concentration of two-fold dilution. […] After all reagents were added, a reaction was carried out with gentle shaking at 20° C. for 1 hour, and after the reaction, a binding activity was measured by a TR-FRET method.
The test system of the next series is ERRγ. It is filed as cell-based.
For the next series, the target named is CYP2C19 (Homo sapiens (Human), UniProt P33261). Nature of the series: Cytochrome P450 activity inhibition, CYP2C19. As to conditions: 10 μM, human liver microsomes. The format is in vitro ADME.
Description: as §1

Series [4] is classed as in vitro ADME, human. The note with it: 1 μM, 30 minutes, 37° C.
Description: 2) Microsomal Stability Evaluation
as §3
Another series addresses CYP1A2 (Homo sapiens (Human), UniProt P05177). Nature of the series: Cytochrome P450 activity inhibition, CYP1A2. It is filed as in vitro ADME. The note with it: 10 μM, human liver microsomes.
Description: as §1

For the next series, the target named is ERR alpha LBD (Homo sapiens (Human), UniProt P11474). As to conditions: read-out: Binding Assay, IC50 ERRα.
The format of series [5] is in vitro ADME, rat. The note with it: 1 μM, 30 minutes, 37° C.
Description: 2) Microsomal Stability Evaluation
as §3
In a further series the target is CYP3A4 (Homo sapiens (Human), UniProt P08684). Nature of the series: Cytochrome P450 activity inhibition, CYP3A4. The format is in vitro ADME. The note with it: 10 μM, human liver microsomes.
The target of another series is CYP2D6 (Homo sapiens (Human), UniProt P10635). Description: Cytochrome P450 activity inhibition, CYP2D6. As to conditions: 10 μM, human liver microsomes. The format is in vitro ADME.
Description: as §1

Series [6] deals with ERRγ protein in CAL62 cells. Nature of the series: Western blot, ERRγ protein. The format is cell-based.
For series [7], the system named is NIS protein in CAL62 cells. Description: Western blot, total and membrane-localized NIS protein. The format is cell-based, human.
Series [8] in a line: Weight change of mice during administration. The note with it: all groups.
The subject of the next series is CAL62 cells. Description: Clonogenic assay with 131I. It is filed as cell-based. The note with it: alone.
Series [9] deals with CAL-62/effluc mouse tumor model. Nature of the series: Bio-distribution study, 125I uptake in CAL-62/effluc tumor. The format is in vivo.
Description: Nude mice (Balb/c nu/nu, female, 6 weeks old) were used, and all animals were normally raised in DMRC center animal laboratory of Kyungbuk National University Hospital in Chilgok. 5×10^6 CAL-62/effluc cells were subcutaneously injected into the left femoral region of the nude mouse to form a tumor. The tumor was extracted, divided into small pieces (20 mg or more), and then intradermally injected into the nude mouse to form a tumor.
After 4 hours of administration, all organs including a parent tumor were extracted, and each organ was weighed. Thereafter, each organ was transferred to a 5 mL test tube, and radioactivity in the organ was measured using a gamma counter.
The test system of another series is ERRγ mRNA in CAL62 cells. Nature of the series: Quantitative RT-PCR, ERRγ mRNA. It is filed as cell-based. The procedure: (§2) Total RNA was separated using Trizol (Invitrogen, Carlsbad, Calif.). Total RNA (2 ug) was reverse-transcribed into cDNA with RevertAid First Strand cDNA Synthesis Kit (Thermo Scientific, Pittsburgh, Pa.). Genes were amplified with a ViiA 7 Real-Time PCR System instrument (Applied Biosystems) using the primer of each target gene and YBR Green PCR master mix (Applied Biosystems, Foster City, Calif.), using a cDNA template. The primer sequence of each target gene is as follows: ERRγ (forward, 5′-CAG ACG CCA GTG GGA GCT A-3′; reverse, 5′-TGGCGAGTCAAGTCCGTTCT-3′), NIS (forward, 5′-TCTAACCGATGCTCACCTCTTCTG-3′; reverse, 5′-AGATGATGGCACCTCCTTGAACC-3′), and acidic ribosomal protein 36B4 (forward, 5′-CCA CGC TGC TGA ACA TGC T-3′; reverse, 5′-TCGAACACCTGCTGGATGAC-3′). Each target gene was normalized using a 36B4 gene.

The next series concerns NIS mRNA in CAL62 cells. Nature of the series: Quantitative RT-PCR, NIS mRNA. The format is cell-based. How it is done:
as §2

The format of series [10] is in vivo. As to conditions: rat, PO 10 mg/kg vs IV 1 mg/kg.
Description: An oral administration group fasts the day before.
Blood of each animal is collected at 0 hour.
Into a tail vein of an intravenous administration group (IV), a drug is injected at a dose of 1 mg/kg (syringe).
To an oral administration group (PO), a drug is orally administered at a dose of 10 mg/kg (oral zondec)
After administration, blood of the intravenous administration group was collected through a jugular vein 8 times at 0.08, 0.25, 0.5, 1, 2, 4, 6, and 8 hours. One collected blood amount is 400 to 500 ul.
After administration, blood of the oral administration group was collected through a jugular vein 6 times at 0.25, 0.5, 1, 4, 6 and 8 hours. One collected blood amount is 400 to 500 ul.
Supernatant plasma is collected by a centrifuge.
The supernatant plasma was injected into a LC-MS/MS system and the drug is analyzed.
The next series has as its system ATC mouse tumor model. As to conditions: cited from earlier work.
For series [11], the target named is ERR gamma ligand-binding domain (LBD) (Homo sapiens (Human), UniProt P62508). Nature of the series: ERRγ binding assay (inverse agonist assay), TR-FRET. Background: TR-FRET usually uses a lanthanide donor and a delayed reading to cut background.
Description: 1) ERRγ Binding Assay (Inverse Agonist Assay)
as §4
Series [12] is classed as in vitro ADME. The note with it: PBS pH 7.4, 25° C., 5 hours.
Description: 3) Parallel Artificial Membrane Permeability Assay (PAMPA) Evaluation
PAMPA is a method which has been developed for testing cell membrane permeability of a material in a test tube, and has been performed using a lipid tri-layer PVDF membrane available from Corning Gentest (NY, US), the used reagents were all purchased from Sigma (MO, US). First, a test material is diluted in PBS (pH 7.4) to a final concentration of 10 mM, 300 mL of the solution is added to the bottom well of a 96-transwell equipped with a PVDF membrane, and 200 mL of PBS is added to the upper well. Then, a plate is reacted at 25° C. for 5 hours, 20 mL of the solution in each well is transferred to a new container, and 80 mL of acetonitrile containing an internal standard material (4 mM chloropropamide) is added thereto. A concentration of the material in the solution is analyzed using LC-MS/MS (ThermoFisher Scientific, MO, US), and the transmittance of the material is calculated according to the equation reported in the reference document. • Reference document: A novel design of artificial membrane for improving the PAMPA model.

Sequence of CYP2C9 (P11712 whole entry): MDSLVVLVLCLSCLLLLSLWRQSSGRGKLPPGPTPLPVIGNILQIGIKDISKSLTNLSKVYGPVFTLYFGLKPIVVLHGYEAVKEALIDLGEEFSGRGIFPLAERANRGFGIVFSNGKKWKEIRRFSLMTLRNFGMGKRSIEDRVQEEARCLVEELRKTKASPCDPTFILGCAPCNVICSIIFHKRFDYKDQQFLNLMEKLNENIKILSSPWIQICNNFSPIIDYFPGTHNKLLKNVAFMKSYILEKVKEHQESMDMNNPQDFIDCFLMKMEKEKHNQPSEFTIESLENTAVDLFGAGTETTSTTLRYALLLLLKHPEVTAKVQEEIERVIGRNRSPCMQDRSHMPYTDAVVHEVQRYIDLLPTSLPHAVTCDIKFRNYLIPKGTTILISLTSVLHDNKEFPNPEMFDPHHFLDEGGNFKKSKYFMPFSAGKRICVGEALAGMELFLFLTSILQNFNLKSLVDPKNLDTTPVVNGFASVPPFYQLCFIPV
Sequence of CYP3A4 (P08684 whole entry): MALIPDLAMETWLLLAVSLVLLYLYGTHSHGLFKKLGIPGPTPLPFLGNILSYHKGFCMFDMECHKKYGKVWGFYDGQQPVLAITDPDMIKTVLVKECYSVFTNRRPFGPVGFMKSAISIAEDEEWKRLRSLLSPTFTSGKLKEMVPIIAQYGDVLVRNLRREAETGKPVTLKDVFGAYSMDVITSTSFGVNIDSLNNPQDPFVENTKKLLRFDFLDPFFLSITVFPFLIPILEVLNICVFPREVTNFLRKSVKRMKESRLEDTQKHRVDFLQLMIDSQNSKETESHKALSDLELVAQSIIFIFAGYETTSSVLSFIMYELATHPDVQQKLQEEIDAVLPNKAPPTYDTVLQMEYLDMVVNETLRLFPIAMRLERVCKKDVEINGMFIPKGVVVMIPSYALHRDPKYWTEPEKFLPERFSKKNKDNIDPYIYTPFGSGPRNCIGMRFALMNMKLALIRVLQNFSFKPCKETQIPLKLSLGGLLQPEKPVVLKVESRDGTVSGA
Sequence of CYP1A2 (P05177 whole entry): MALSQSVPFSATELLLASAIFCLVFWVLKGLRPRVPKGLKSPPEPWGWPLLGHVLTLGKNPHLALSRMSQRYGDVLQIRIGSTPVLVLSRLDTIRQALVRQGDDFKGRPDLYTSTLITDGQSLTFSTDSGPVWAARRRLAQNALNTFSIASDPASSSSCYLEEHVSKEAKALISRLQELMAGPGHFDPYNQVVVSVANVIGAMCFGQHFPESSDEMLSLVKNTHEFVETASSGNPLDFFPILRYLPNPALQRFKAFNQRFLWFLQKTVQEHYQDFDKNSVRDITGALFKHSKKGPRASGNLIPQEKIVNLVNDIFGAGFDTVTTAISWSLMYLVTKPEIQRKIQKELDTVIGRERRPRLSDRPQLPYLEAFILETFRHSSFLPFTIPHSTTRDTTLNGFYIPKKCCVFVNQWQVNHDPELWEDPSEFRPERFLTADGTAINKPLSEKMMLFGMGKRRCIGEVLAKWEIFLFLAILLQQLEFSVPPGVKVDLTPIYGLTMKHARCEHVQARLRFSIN
Sequence of CYP2C19 (P33261 whole entry): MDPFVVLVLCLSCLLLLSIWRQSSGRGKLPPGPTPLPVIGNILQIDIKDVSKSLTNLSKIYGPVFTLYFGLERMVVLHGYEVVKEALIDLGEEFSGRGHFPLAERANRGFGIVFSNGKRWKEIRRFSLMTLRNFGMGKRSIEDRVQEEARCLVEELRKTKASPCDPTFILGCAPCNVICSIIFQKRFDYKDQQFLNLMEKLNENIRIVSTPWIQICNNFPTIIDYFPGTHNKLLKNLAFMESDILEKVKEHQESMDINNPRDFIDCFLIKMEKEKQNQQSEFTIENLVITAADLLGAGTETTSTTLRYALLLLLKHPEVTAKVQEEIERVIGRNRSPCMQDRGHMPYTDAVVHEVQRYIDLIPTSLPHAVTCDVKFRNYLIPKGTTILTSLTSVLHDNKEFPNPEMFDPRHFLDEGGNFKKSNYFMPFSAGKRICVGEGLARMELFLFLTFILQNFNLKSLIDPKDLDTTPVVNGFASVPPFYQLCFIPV
Sequence of CYP2D6 (P10635 whole entry): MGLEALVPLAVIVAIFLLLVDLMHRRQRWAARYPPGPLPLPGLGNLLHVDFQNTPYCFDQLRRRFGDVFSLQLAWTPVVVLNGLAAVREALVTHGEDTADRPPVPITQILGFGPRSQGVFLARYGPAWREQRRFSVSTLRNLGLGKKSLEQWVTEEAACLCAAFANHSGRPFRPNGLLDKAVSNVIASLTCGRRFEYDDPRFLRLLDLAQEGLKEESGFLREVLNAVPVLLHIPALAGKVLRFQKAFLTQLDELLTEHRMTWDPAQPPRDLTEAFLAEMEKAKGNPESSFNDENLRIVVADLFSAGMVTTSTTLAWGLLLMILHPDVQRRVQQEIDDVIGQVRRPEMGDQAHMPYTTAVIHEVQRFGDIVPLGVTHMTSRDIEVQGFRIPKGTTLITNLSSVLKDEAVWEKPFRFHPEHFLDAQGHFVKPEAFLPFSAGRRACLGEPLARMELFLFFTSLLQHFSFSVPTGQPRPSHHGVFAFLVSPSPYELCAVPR
Sequence of ERR alpha LBD (P11474 193-421, species assumed): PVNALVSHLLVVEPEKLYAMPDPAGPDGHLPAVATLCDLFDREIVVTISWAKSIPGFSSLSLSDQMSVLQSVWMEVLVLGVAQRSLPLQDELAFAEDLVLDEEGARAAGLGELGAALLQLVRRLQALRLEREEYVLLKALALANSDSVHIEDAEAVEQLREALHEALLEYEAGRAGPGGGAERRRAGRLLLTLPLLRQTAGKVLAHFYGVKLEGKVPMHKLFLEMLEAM
Sequence of ER alpha ligand-binding domain (LBD) (P03372 whole entry, looked up, the tested form may be a part): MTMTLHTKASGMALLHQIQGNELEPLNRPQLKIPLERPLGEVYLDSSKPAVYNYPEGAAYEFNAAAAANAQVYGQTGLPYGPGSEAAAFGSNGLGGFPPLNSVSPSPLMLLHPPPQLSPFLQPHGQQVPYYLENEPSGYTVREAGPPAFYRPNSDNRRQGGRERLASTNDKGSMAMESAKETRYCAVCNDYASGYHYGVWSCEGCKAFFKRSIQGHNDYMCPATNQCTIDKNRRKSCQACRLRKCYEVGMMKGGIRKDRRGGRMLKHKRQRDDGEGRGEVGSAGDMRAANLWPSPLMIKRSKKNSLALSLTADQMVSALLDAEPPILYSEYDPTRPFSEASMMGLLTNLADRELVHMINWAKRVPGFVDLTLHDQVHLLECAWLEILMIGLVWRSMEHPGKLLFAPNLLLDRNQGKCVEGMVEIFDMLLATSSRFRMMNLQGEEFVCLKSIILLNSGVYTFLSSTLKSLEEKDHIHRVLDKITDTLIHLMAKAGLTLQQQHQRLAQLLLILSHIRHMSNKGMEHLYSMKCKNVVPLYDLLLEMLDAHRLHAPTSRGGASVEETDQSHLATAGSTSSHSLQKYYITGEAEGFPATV
Sequence of ERR gamma ligand-binding domain (LBD) (P62508 233-457): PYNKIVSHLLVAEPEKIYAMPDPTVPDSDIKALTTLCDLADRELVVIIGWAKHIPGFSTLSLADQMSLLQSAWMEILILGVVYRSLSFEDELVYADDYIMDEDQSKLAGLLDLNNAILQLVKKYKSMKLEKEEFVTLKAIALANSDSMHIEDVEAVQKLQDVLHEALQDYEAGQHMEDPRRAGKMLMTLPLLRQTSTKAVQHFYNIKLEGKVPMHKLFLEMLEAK
Description for CYP3A4: Thereafter, in order to complete the reaction, an acetonitrile solution containing an internal standard material (Terfenadine) was added thereto, centrifugation (14,000 rpm, 4° C.) was performed for 5 minutes, and a supernatant was injected into a LC-MS/MS system to analyze the metabolites of the substrate drug, thereby evaluating drug metabolism enzyme inhibition by the arylethene derivative of the present invention.
Description for ERR alpha LBD: as §4
Description for ERRβ: as §4

For the compound `COc1cccc(-c2cc(=O)c3ccccc3o2)c1N` [PD98059, reference compound], in the series with CAL-62 cells (selective MEK inhibitor, pre-incubated 30 minutes), the “inhibition of the radioactive iodine uptake increase by compound 18a” value is “completely inhibited”. For the same compound, the “inhibition of the relative increase of phosphorylated ERK1 and ERK2 by compound 18a” value with pERK1/2 in CAL62 cells is reported as “completely inhibited”.
For orientation: IC50 means the concentration that gives 50% inhibition. `OCCC/C(=C(\c1ccc(O)cc1)c1ccc(C2CCNCC2)cc1)c1ccccc1` [Compound 20j]: the “MS (Microsomal Stability) (%) dog” value in series [1] turned out to be 68.3%. Besides, the IC50 at ERRβ was 4.93 µM; in [3], 0.992 µM; on ERR alpha LBD, greater than 10 µM. Also, at CYP2C9, the “CYP inhibition (% of control) 2C9” value was 77.1 % of control. Further, the “MS (Microsomal Stability) (%) mouse” value in [2] came to 25.3%. Further, the “Functional Assay at 10 μM (% of control), Cpds” value in the series on ERRγ (10 μM, AD293, 24 hours) is 1.41 % of control. Moreover, the “Functional Assay, Cpds/Ref 5182” value in the series with ERRγ (activity relative to reference compound GSK5182) was 1.38. Also, the “CYP inhibition (% of control) 2C19” value at CYP2C19 was 62 % of control. In addition, the “MS (Microsomal Stability) (%) human” value in series [4] is 76.8%. In addition, on CYP1A2, the “CYP inhibition (% of control) 1A2” value is reported as 93.6 % of control. For the same compound, the “MS (Microsomal Stability) (%) rat” value in series [5] was found to be 84.5%. Also, at CYP3A4, the “CYP inhibition (% of control) 3A4” value was 66.2 % of control. Moreover, the “CYP inhibition (% of control) 2D6” value at CYP2D6 is on record as 89.3 % of control.
For the compound `CC(C)N1CCN(c2ccc(C(=C(CCCO)c3ccccc3)c3ccc(O)cc3)cc2)CC1` [Compound 18a], the “ERRγ protein expression, decrease vs vehicle treated group” value in [6] is “about 2.8 times”. In addition, in [7], the “increase in membrane fully glycosylated NIS protein” value is 8.1 times and the “increase in membrane partially glycosylated NIS protein” value amounted to 6.4 times. The “total NIS protein expression, change vs vehicle treated group” value in series [7] (text says significantly increased, then decreased) is reported as “about 1.9 times”. The “weight change in the mice” value in [8] is given as “abrupt weight change in the mice was not shown”. The “cytotoxic effect in clone formation assay” value in the series with CAL62 cells is recorded as “minimal cytotoxic effect”. Besides, the “radioactive uptake in CAL62 tumor, increase vs vehicle group” value in [9] (100 mpk orally daily for 6 days) worked out at 4.4 times. In series [9] (200 mpk orally daily for 6 days), the “radioactive uptake in CAL62 tumor, increase vs vehicle group” value was found to be 16.2 times. Also, the “ERRγ mRNA expression, decrease vs vehicle treated group” value with ERRγ mRNA in CAL62 cells is “about 16 times”. Further, the “NIS mRNA expression, increase vs vehicle-treated group” value in the series on NIS mRNA in CAL62 cells is “about 2 times”. Besides, the “CYP inhibition (% of control) 1A2” value on CYP1A2 is 88 % of control. In the series with CAL-62 cells (CAL62 cells), the “concentration of maximum increase of iodine uptake” value is 12 µM. Further, the “radioactive iodine uptake in CAL62 cells” value in the series with CAL-62 cells (for each concentration and each time) is “significant increase”.
For `CN(C)CCOc1ccc(/C(=C(/CCCO)c2ccccc2)c2ccc(O)cc2)cc1` [GSK5182, reference compound], the “CYP inhibition (% of control) 2C9” value at CYP2C9 is on record as 72.9 % of control. This compound gave a BA in [10] of 8.4%. For the same compound, the “CYP inhibition (% of control) 2C19” value on CYP2C19 is listed as 78.2 % of control. For the same compound, on CYP1A2, the “CYP inhibition (% of control) 1A2” value is listed as 84.6 % of control. Besides, the “CYP inhibition (% of control) 3A4” value at CYP3A4 is listed as 83 % of control. Besides, in the series with ATC mouse tumor model, the “radioiodine uptake in the tumor” value is “not increased”. In addition, on CYP2D6, the “CYP inhibition (% of control) 2D6” value was 82.3 % of control.
Consider `OCCC/C(=C(\c1ccc(O)cc1)c1ccc(C2CCN(C3CCCCC3)CC2)cc1)c1ccccc1` [Compound 22p], for which, in [1], the “MS (Microsomal Stability) (%) dog” value was found to be 77.7%. The “CYP inhibition (% of control) 2C9” value on CYP2C9 was 81.8 % of control. The IC50 in series [11] was 0.099 µM; in [3], 2.12 µM; at ERR alpha LBD it was 9.7 µM. Moreover, in series [2], the “MS (Microsomal Stability) (%) mouse” value stood at 40.4%. In addition, the “CYP inhibition (% of control) 2C19” value at CYP2C19 is 61.5 % of control. The “MS (Microsomal Stability) (%) human” value in [4] was 72.3%. For the same compound, the “Permeability Pampa” value in series [12] is 0.2 10^−6 cm/s. Further, the “CYP inhibition (% of control) 1A2” value on CYP1A2 was 88.1 % of control. Also, the “MS (Microsomal Stability) (%) rat” value in series [5] is on record as 75.3%. Moreover, the “CYP inhibition (% of control) 3A4” value at CYP3A4 was 90.6 % of control. The “CYP inhibition (% of control) 2D6” value at CYP2D6 is 79.6 % of control.
On to `N#CC(=C(/N)Sc1ccccc1N)/C(C#N)=C(\N)Sc1ccccc1N` [Compound U0126, U0126], for which the “inhibition of the relative increase of phosphorylated ERK1 and ERK2 by compound 18a” value in the series on pERK1/2 in CAL62 cells was “completely inhibited”.
